Data on three molecules can be found in patent US20180243308A1, “PHARMACEUTICAL COMBINATION” (Boehringer Ingelheim International GmbH, priority 2008, published 2018).

Data set [1] concerns advanced non-small-cell lung cancer. The data set can be described thus: Phase II double-blind randomized study of two doses of compound A1. The class given is in vivo, human. The settings on record: for median Progression Free Survival (PFS) time: all patients. The protocol: This study was conducted as a Phase II double-blind, randomized study of two different doses of orally administered compound A1 in patients with advanced non-small-cell lung cancer who had failed at least one prior chemotherapy regimen. The primary efficacy endpoints evaluated were response rate and time to progression. Important secondary endpoints were survival and tolerability of compound A1.
Patients were randomly assigned to receive compound A1 at a dose of 250 mg twice daily or 150 mg twice daily. The dose of compound A1 could be reduced stepwise to no lower than 100 mg twice daily in case of undue toxicity that would prevent chronic treatment. Patients were treated until diagnosis of progression of the underlying lung cancer disease. Progressive disease, for the analysis of the primary endpoint, was defined as radiological evidence of tumour progression according to RECIST criteria.
This randomized study enrolled 73 patients in total, 36 patients at the dose of 250 mg twice daily and 37 patients at the dose of 150 mg twice daily.
The ECOG performance status score is a scale from 0 to 5 with criteria used by doctors and researchers to assess how a patient's disease is progressing, assess how the disease affects the daily living abilities of the patient, and determine appropriate treatment and prognosis (Oken, M. M., Creech, R. H., Tormey, D. C., Horton, J., Davis, T. E., McFadden, E. T., Carbone, P. P.: Toxicity And Response Criteria Of The Eastern Cooperative Oncology Group. Am J Clin Oncol 5:649-655, 1982). […] Overall Survival (OS) time is defined as the length of time a patient lives after they are diagnosed with or treated for a disease.

The test system of data set [2] is Calu-6 xenografts (human NSCLC tumor cell line). The data set can be described thus: subcutaneous Calu-6 NSCLC xenografts, single agents and combination. In kind it is in vivo. The settings on record: Calu-6 xenografts in nude mice, end of experiment (38 days of treatment), suboptimal doses. The protocol: In order to analyse the anti-tumor effects of combining the inhibition of tumor angiogenesis by interfering with the VEGFR signaling cascade with the established anti-proliferative treatment modality of NSCLC with compound B1, the following in vivo experiment was performed. Nude mice carrying established subcutaneous Calu-6 xenografts (human NSCLC tumor cell line) were randomized and treated with either compound B1 or compound A1 alone or with the combination of both drugs.

Data set [3] relates to recurrent advanced stage NSCLC.
Experimental: Patients with advanced stage NSCLC, PS 0-1, previously treated with one first line platinum-based chemotherapy regimen were eligible for this trial. […] Tumor assessments were performed at screening and after every second treatment cycle according to RECIST (Response Evaluation Criteria in Solid Tumors).
The next data set relates to relapsed ovarian cancer. As to the kind of experiment: Phase II maintenance trial of compound A1 versus placebo. The class given is in vivo, human. As to the method:
The primary efficacy endpoint of this trial was the Progression Free Survival Rate (PFSR) at 9 months after start of treatment with compound A1. As secondary endpoints PFS rate at 3 months and 6 months, respectively, and time to next anti-tumour treatment were evaluated.
Patients were randomly assigned to receive compound A1 at a dose of 250 mg twice daily or matching placebo. […] Patients were treated until diagnosis of progression of the underlying ovarian cancer disease. Progressive disease, for the analysis of the primary endpoint, was defined as either radiological progression, or tumour marker (CA-125) progression.
In total, 84 patients were entered into the trial. 44 patients were randomised to receive compound A1 at a dose of 250 mg twice daily, and 40 patients to receive matching placebo.

In the next data set the test system is FaDu. As to the kind of experiment: in vivo anti-tumor efficacy, FaDu xenograft model. The settings on record: Head and neck, 100 mg/kg/d.
The next data set deals with Calu-6. The data set can be described thus: in vivo anti-tumor efficacy, Calu-6 xenograft model. The note with it: Lung (non-small-cell), Calu-6, 50 mg/kg/d.
Another data set relates to SKOV3. As to the kind of experiment: in vivo anti-tumor efficacy, SKOV3 xenograft model. The settings on record: Ovarian, SKOV3, 50 mg/kg/d.
Another data set concerns Caki-1. The data set can be described thus: in vivo anti-tumor efficacy, Caki-1 xenograft model. The settings on record: Renal, Caki-1, 100 mg/kg/d.
The next data set has as its system PAC-120. The data set can be described thus: in vivo anti-tumor efficacy, PAC-120 xenograft model. The note with it: Prostate (hormone-dependent), PAC-120, 100 mg/kg/d.
In a further data set the test system is HT-29. The data set can be described thus: in vivo anti-tumor efficacy, HT-29 xenograft model. The note with it: Colorectal, HT-29, 100 mg/kg/d.
The test system of another data set is NCI-H460. As to the kind of experiment: in vivo anti-tumor efficacy, NCI-H460 xenograft model. The note with it: Lung (non-small-cell), NCI-H460, 25 mg/kg/d.
Another data set relates to HT-29 large tumors. As to the kind of experiment: in vivo anti-tumor efficacy, HT-29 large tumors. The settings on record: Colorectal.
For the next data set, the system named is Rip-Tag. As to the kind of experiment: in vivo anti-tumor efficacy, Rip-Tag murine transgenic pancreas model.
A further data set has as its system GS-9L. The data set can be described thus: in vivo anti-tumor efficacy, GS-9L syngeneic rat tumor model. The note with it: Glioblastoma, 50 mg/kg/d.
Setting [4] is: 250 mg twice daily maintenance, preliminary data output.

As to `CCS(=O)(=O)O.COC(=O)c1ccc2c(c1)NC(=O)/C2=C(\Nc1ccc(N(C)C(=O)CN2CCN(C)CC2)cc1)c1ccccc1` [compound A1, 3-Z-[1-(4-(N-((4-methyl-piperazin-1-yl)-methylcarbonyl)-N-methyl-amino)-anilino)-1-phenyl-methylene]-6-methoxycarbonyl-2-indolinone-monoethanesulphonate], in data set [1] (150 mg twice daily), the “Overall Survival (OS) time” value is reported as 144 days and the “median Progression Free Survival (PFS) time” value came out at 48 days. Further, in data set [1] (250 mg twice daily), the “Overall Survival (OS) time” value was 208 days and the “median Progression Free Survival (PFS) time” value came to 53 days. The “median overall survival (OS)” value in [1] (all patients (ECOG 0-2)) turned out to be 153 days. Moreover, the “median PFS” value in [1] (baseline ECOG of 0 or 1, 150 mg twice daily) is 81 days. The “median PFS” value in data set [1] (baseline ECOG of 0 or 1, 250 mg twice daily) is reported as 85 days. The “patients with stable disease” value in data set [1] (baseline ECOG of 2) is recorded as “one of the 17 patients”. Further, the “reduction (partial response) in tumor size” value in [1] (one patient, 250 mg twice daily, sustained through 9 months) amounted to 74%. Also, the “median OS” value in [1] (patients with ECOG score of 0-1) turned out to be 264 days. Moreover, in data set [1] (subgroup with ECOG 0 or 1), the “patients achieving clinical benefit” value was around 60%. Also, the T/C value in data set [2] is 33%. Further, the “period the patient with the CR has been maintained on monotherapy” value in [3] (compound A1 monotherapy after combination stage) was “over 63 weeks”. In data set [3] (in combination with standard dose of compound B1 (500 mg/m^2)), the “Maximum Tolerated Dose (MTD) of compound A1” value is given as 200 mg bid. Moreover, in the data set on relapsed ovarian cancer (setting [4]), the “PFS rate at 6 months (24 weeks)” value is 28.3% and the “PFS rate at 9 months (36 weeks)” value is recorded as 16.5%. Further, the “median time to progression” value in the data set with relapsed ovarian cancer (based on radiological data, disregarding tumour marker progression) is given as 143 days. In the data set on relapsed ovarian cancer (versus placebo arm), the “PFS rate at 3 months (12 weeks)” value is “not different between arms”; the “time between tumour marker progression and radiological progression” value was “longer”.

As for `COC(=O)c1ccc2c(c1)NC(=O)/C2=C(\Nc1ccc(N(C)C(=O)CN2CCN(C)CC2)cc1)c1ccccc1` [compound A, 3-Z-[1-(4-(N-((4-methyl-piperazin-1-yl)-methylcarbonyl)-N-methyl-amino)-anilino)-1-phenyl-methylene]-6-methoxycarbonyl-2-indolinone], the T/C entry is listed as “T/C 11% @ 100 mg/kg/d” in the data set on FaDu; “T/C 24% @ 50 mg/kg/d” in the data set with Calu-6; “T/C 19% @ 50 mg/kg/d” in the data set with SKOV3; “T/C 13% @ 100 mg/kg/d” in the data set with Caki-1; “T/C 34% @ 100 mg/kg/d” in the data set with PAC-120; “T/C 16% @ 100 mg/kg/d” with HT-29. Besides, the T/C entry was “T/C 54% @ 25 mg/kg/d” in the data set on NCI-H460 and “T/C 32% @ 50 mg/kg/d” in the data set with GS-9L. In addition, the Efficacy entry in the data set with HT-29 large tumors is given as “tumor volume reduction”. For the same molecule, in the data set on Rip-Tag, the “Efficacy (cell wraps: interference with tumor formation)” value is “interference with”.

`Nc1nc2[nH]cc(CCc3ccc(C(=O)N[C@@H](CCC(=O)[O-])C(=O)[O-])cc3)c2c(=O)[nH]1.[Na+].[Na+]` [compound B1, N-[4-[2-(2-amino-4,7-dihydro-4-oxo-1H-pyrrolo[2,3-d]pyrimidin-5-yl)ethyl]benzoyl]-L-Glutamic acid, disodium salt, heptahydrate, reference compound]: the T/C value in data set [2] came out at 46%.
